Data: patent US20140205537A1, “LRRK2 INHIBITORS” (ZENOBIA THERAPEUTICS, INC., priority 2011, published 2014)

Assays:
GSK3beta = GSK3beta (Homo sapiens, UniProt P49841); test: Kinase selectivity panel: GSK3beta; assay type: biochemical
PKA = PKA (Homo sapiens, UniProt P17612); test: Kinase selectivity panel: PKA; assay type: biochemical
PKC beta1 = PKC beta1 (Homo sapiens, UniProt P05771); test: Kinase selectivity panel: PKC beta1; assay type: biochemical
CDK5/p35 = CDK5/p35 (Homo sapiens, UniProt Q00535); test: Kinase selectivity panel: CDK5/p35; assay type: biochemical
Chain of CDK5/p35 (Q00535 whole entry, species assumed): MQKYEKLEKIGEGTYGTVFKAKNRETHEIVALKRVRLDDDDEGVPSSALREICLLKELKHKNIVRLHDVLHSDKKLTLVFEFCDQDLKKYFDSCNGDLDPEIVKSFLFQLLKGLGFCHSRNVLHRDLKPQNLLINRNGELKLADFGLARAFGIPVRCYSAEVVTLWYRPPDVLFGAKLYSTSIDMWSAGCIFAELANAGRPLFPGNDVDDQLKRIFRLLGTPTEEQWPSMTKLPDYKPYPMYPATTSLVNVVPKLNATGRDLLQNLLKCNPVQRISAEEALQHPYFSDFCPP
Chain of CDK5/p35 (Q15078 whole entry partner, species assumed): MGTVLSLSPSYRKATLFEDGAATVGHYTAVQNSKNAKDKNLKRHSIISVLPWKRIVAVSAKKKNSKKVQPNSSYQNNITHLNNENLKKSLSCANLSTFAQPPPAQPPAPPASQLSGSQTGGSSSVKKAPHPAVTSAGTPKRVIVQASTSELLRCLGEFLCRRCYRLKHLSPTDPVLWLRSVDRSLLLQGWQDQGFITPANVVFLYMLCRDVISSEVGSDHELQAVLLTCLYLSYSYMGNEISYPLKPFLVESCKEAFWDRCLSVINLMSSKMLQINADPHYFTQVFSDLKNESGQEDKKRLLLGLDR

RSK2 = RSK2 (Homo sapiens, UniProt P51812); test: Kinase selectivity panel: RSK2; assay type: biochemical
MAPKAPK2 = MAPKAPK2 (Homo sapiens, UniProt P49137); test: Kinase selectivity panel: MAPKAPK2; assay type: biochemical
Chain of MAPKAPK2 (P49137 whole entry, species assumed): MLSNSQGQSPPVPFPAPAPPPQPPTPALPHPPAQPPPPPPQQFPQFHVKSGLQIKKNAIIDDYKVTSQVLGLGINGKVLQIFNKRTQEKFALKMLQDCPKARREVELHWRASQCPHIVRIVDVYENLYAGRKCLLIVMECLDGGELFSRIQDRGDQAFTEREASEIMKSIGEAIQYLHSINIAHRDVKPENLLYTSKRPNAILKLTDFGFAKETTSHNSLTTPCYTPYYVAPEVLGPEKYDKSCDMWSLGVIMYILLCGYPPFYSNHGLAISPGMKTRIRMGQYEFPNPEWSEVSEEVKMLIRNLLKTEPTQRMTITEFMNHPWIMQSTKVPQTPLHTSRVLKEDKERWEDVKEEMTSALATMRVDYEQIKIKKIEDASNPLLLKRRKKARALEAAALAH

INSR = INSR (Homo sapiens, UniProt P06213); test: Kinase selectivity panel: INSR; assay type: biochemical
PAK4 = PAK4 (Homo sapiens, UniProt O96013); test: Kinase selectivity panel: PAK4; assay type: biochemical
PDGFRbeta = PDGFRbeta (Homo sapiens, UniProt P09619); test: Kinase selectivity panel: PDGFRbeta; assay type: biochemical
FGFR1 = FGFR1 (Homo sapiens, UniProt P11362); test: Kinase selectivity panel: FGFR1; assay type: biochemical
RET = RET (Homo sapiens, UniProt P07949); test: Kinase selectivity panel: RET; assay type: biochemical
Chain of RET (P07949 29-1114, species assumed): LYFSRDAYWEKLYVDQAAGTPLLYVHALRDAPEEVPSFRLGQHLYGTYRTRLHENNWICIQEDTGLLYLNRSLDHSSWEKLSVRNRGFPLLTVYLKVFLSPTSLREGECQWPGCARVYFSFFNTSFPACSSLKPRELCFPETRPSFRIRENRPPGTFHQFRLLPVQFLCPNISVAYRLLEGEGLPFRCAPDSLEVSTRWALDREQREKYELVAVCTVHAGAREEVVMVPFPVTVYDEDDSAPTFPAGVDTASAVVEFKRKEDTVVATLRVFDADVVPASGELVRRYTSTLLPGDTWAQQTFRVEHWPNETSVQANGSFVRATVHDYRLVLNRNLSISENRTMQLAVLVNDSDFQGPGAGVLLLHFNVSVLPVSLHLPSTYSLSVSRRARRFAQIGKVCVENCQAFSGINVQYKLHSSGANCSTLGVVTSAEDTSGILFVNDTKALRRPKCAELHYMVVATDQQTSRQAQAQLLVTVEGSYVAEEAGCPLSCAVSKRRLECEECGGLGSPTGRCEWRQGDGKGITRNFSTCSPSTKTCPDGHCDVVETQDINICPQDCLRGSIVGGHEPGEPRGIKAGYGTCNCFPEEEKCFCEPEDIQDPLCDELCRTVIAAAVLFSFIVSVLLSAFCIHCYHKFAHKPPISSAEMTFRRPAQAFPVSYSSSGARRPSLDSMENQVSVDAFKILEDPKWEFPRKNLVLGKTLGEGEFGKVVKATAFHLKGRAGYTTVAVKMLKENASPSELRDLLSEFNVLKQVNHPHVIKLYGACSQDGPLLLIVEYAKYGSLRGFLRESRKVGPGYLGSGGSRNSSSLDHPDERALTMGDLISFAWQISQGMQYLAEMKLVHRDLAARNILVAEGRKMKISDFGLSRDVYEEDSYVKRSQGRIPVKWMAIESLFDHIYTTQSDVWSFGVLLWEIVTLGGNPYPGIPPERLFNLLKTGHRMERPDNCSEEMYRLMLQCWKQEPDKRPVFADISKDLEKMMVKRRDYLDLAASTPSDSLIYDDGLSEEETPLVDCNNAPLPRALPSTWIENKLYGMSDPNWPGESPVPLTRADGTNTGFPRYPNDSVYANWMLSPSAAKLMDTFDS

FLT3 = FLT3 (Homo sapiens, UniProt P36888); test: Kinase selectivity panel: FLT3; assay type: biochemical
CAMK2D = CAMK2D (Homo sapiens, UniProt Q13557); test: Kinase selectivity panel: CAMK2D; assay type: biochemical
Chain of CAMK2D (Q13557 whole entry, species assumed): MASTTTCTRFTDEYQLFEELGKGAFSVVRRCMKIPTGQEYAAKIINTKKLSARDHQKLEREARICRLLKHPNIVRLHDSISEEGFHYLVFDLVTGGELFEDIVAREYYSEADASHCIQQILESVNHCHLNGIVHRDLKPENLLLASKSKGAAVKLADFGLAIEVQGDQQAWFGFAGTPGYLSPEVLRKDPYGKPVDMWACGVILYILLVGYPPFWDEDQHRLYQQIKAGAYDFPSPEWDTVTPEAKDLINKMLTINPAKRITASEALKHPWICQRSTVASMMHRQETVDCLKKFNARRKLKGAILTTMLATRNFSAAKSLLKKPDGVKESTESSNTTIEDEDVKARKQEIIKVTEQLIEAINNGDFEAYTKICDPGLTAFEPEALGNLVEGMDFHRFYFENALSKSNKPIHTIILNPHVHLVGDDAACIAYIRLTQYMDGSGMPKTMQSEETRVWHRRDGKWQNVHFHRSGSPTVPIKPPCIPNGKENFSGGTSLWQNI

LCK = LCK (Homo sapiens, UniProt P06239); test: Kinase selectivity panel: LCK; assay type: biochemical
CK1 gamma2 = CK1 gamma2 (Homo sapiens, UniProt P78368); test: Kinase selectivity panel: CK1 gamma2; assay type: biochemical
Chain of CK1 gamma2 (P78368 whole entry): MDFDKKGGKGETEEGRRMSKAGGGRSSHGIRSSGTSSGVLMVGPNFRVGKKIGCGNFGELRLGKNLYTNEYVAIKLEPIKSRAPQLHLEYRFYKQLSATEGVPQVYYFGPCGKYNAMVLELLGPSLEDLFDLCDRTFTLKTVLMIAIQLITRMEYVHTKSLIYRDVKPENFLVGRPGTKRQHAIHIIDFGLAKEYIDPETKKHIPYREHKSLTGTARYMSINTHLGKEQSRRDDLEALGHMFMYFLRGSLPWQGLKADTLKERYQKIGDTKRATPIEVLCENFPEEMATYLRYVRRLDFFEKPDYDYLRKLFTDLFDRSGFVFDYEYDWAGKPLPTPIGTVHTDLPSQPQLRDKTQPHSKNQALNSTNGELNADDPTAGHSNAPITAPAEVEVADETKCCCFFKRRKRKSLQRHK

HER2 = HER2 (Homo sapiens, UniProt P04626); test: Kinase selectivity panel: HER2; assay type: biochemical
PIM1 = PIM1 (Homo sapiens, UniProt P11309); test: Kinase selectivity panel: PIM1; assay type: biochemical
MLK1 = MLK1 (Homo sapiens, UniProt P80192); test: Kinase selectivity panel: MLK1; assay type: biochemical
G2019S LRRK2 = G2019S LRRK2 (Homo sapiens, UniProt Q5S007, G2019S); test: G2019S LRRK2 inhibition (Invitrogen SelectScreen / TR-FRET biochemical assay); parameters: The protein construct used in the assay is GST tagged 969-2527; GST; purchased Invitrogen; settings: numeric value
Chain of G2019S LRRK2 (Q5S007 969-2527 G2019S): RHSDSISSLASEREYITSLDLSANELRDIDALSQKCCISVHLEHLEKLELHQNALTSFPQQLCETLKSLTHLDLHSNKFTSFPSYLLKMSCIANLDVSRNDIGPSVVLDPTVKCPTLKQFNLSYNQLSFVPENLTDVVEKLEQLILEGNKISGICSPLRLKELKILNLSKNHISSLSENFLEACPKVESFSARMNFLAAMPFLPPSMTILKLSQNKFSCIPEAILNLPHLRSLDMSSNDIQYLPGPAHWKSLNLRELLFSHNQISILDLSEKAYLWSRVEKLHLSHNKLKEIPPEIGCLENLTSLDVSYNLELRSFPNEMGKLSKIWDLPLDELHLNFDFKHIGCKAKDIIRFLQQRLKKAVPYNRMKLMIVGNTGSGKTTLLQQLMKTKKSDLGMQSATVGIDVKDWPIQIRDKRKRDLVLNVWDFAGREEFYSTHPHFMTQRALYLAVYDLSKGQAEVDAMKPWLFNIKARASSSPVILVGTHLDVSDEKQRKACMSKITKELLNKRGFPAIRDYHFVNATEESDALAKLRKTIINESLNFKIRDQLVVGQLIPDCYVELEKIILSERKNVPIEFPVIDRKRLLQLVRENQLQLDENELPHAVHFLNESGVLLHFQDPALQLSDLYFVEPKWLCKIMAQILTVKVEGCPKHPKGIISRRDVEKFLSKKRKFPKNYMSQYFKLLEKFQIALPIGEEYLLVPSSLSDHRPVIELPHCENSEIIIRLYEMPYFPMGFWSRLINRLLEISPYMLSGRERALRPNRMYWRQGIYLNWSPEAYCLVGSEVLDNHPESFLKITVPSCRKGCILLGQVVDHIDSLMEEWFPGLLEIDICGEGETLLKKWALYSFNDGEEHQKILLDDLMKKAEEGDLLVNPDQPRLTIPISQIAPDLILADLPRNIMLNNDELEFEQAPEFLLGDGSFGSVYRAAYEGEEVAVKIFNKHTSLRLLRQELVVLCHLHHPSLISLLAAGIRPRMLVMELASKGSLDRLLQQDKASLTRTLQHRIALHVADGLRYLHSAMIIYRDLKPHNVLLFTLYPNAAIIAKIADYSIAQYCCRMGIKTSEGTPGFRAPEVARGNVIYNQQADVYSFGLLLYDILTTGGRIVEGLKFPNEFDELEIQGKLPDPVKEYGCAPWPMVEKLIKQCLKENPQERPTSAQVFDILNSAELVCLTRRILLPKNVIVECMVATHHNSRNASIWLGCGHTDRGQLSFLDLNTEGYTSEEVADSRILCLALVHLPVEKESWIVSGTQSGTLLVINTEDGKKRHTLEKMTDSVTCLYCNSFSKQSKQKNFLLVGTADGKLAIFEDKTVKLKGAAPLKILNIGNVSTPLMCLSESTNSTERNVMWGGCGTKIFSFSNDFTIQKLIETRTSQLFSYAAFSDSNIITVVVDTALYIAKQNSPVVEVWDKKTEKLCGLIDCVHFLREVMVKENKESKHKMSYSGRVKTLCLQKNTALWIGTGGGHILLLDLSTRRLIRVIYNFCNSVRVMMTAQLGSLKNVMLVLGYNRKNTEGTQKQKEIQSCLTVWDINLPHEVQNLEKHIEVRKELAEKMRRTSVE
Method: IC50s were determined using Invitrogen's SelectScreen® Profiling Service for wild type and LRRK2 G2019S. The test compounds were screened in 1% DMSO (final) in the well.
a) % inhibition is measured at one concentration
b) a 10-point titration is run to ensure the kinase is inhibited within an expected IC50 range
Biochemical Assay Protocol:
Compound potency against wild-type and G2019S LRRK2 is measured via TR-FRET. The IC50, the amount of inhibitor required to inhibitor 50% of the protein under the given assay conditions, is determined by varying the amount of compound (500-0.001 uM) by serial dilution with 12-data points per compound, in duplicate. The substrate (Fluorescein-GAGRLGRDKYKTLRQIRQ) and ATP is fixed at 0.8 uM and 57 uM (KmATP), respectively. All assays are run in Corning low volume […] round bottomed plates. The assay is run in 50 mM Tris-HCl pH8.5, 10 mM MgCl2, 0.01% Brij-35, 1 mM EGTA, 2 mMDTT. The TR-FRET assay is an end-point assay where the reaction with protein, substrate, inhibitor and ATP is incubated for 1 hour at room temperature. The compound is pre-incubated with the protein and substrate prior to initiating the reaction with ATP. Phospho-transfer is detected using a Terbium labeled anti-pLRRKtide that binds to phosphorylated substrate creating FRET transfer when excited at 340 nm. Emissions signals are taken for terbium and FRET induced fluorescein at 495 nm and 520 nm, respectively, using a Biotek Synergy 2 spectrophotometer. The dose response is determined by plotting the emission ratio of 520/495 against the log of the inhibitor concentration. The maximum inhibition and non-inhibition controls is run on all plates. Staurosporine is used as the positive inhibition control and DMSO is used as the negative point control. A 12-point dose curve of Staurosporine is run as a dosing control. The IC50 is determined to be the inhibitor concentration at which 50% inhibition is achieved. The protein construct used in the assay is GST tagged 969-2527. The protein is commercially available from Invitrogen.
Alternatively, compounds of formulas (II), (I), (I-A), (I-B), (I-C), (I-D), (I-D-1), (I-D-2), (I-E), (I-F), (I-G), (I-H), (I-I), (I-I-1), (I-I-2), (I-J), (I-K), (I-L), (I-M), (I-N), (I-Z-1), (I-Z-2), (I-Z-2-a), (I-Z-2-b), (I-Z-2-c), (I-Z-2-d), (I-Z-3-a), (I-Z-3-b), (I-Z-3-c), or (I-Z-3-d) were tested using Invitrogen's SelectScreen® Profiling Service for LRRK2 G2019S.

JAK3 = JAK3 (Homo sapiens, UniProt P52333); test: Kinase selectivity panel: JAK3; assay type: biochemical

Chain of GSK3beta (P49841 whole entry, species assumed): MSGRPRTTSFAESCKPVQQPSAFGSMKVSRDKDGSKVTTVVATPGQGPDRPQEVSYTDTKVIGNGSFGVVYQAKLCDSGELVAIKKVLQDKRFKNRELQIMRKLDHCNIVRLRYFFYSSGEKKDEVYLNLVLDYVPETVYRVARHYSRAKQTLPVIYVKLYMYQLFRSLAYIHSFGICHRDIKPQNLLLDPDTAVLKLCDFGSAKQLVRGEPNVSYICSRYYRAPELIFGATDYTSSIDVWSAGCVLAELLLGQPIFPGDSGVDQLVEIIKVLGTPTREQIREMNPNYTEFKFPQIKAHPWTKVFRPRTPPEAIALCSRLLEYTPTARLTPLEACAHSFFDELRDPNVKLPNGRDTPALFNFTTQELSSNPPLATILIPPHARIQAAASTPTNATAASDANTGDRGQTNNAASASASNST

inhibition at 0.1 µM (GSK3beta): 0%
inhibition at 0.1 µM (PKA): 2%
inhibition at 0.1 µM (PKC beta1): 4%
IC50 (CDK5/p35): > 10 µM
inhibition at 0.1 µM (CDK5/p35; @0.1 uM): 1%
inhibition at 0.1 µM (RSK2): 3%
inhibition at 0.1 µM (MAPKAPK2): 4%
inhibition at 0.1 µM (INSR): 4%
inhibition at 0.1 µM (PAK4): 1%
inhibition at 0.1 µM (PDGFRbeta): 4%
inhibition at 0.1 µM (FGFR1): 9%
inhibition at 0.1 µM (RET): 3%
inhibition at 0.1 µM (FLT3): 8%
IC50 (CAMK2D): 276 nM
inhibition at 0.1 µM (CAMK2D; @0.1 uM): 41%
inhibition at 0.1 µM (LCK): 3%
inhibition at 0.1 µM (CK1 gamma2): 6%
inhibition at 0.1 µM (HER2): 4%
inhibition at 0.1 µM (PIM1): -2%
inhibition at 0.1 µM (MLK1): -17%
IC50 (G2019S LRRK2): 5.5 nM
inhibition at 0.1 µM (JAK3): 2%
Compound: COc1ccc2c(c1)/C(=C/c1cnc(C3CCOCC3)[nH]1)C(=O)N2 [Compound 18, (3Z)-5-methoxy-3-[(2-tetrahydropyran-4-yl-1H-imidazol-5-yl)methylene]indolin-2-one]
